The source of these data is ChEMBL document CHEMBL1137408, “Acylguanidines as small-molecule beta-secretase inhibitors” (J Med Chem, 2006).

The species entered for one assay is Homo sapiens. The experiment in a line: Selectivity for BACE1 over Cathepsin D.
The next assay deals with Pepsin A (Homo sapiens, UniProt P0DJD9). Nature of the assay: Inhibition of pepsin by FRET based peptide cleavage assay.
Another assay has as its system CHO. The experiment in a line: Decrease in beta amyloid protein level in CHO cells expressing human APP by ELISA. Format: functional. Conditions: Cricetulus griseus, read-out: ED50 (the source's name). For orientation: An ELISA detects its analyte on a solid surface through an enzyme-linked reagent.
The target of another assay is T1, Beta-secretase 2 (Homo sapiens, UniProt Q9Y5Z0).
T1 sequence (Q9Y5Z0 whole entry): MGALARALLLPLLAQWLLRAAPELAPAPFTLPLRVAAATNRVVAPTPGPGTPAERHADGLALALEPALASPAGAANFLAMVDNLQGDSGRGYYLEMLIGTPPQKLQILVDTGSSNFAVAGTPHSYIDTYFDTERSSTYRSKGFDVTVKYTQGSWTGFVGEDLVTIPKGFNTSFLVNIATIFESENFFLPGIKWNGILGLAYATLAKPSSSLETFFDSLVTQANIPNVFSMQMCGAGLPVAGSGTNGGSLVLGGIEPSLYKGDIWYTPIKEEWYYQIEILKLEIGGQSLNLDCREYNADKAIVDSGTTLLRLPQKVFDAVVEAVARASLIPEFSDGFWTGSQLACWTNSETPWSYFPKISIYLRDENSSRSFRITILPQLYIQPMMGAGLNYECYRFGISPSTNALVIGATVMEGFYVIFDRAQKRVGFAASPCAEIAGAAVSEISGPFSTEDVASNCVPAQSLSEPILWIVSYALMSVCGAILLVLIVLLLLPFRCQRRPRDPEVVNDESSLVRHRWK
The experiment in a line: Inhibition of BACE2 by FRET based peptide cleavage assay.

Another assay has as its target Beta-secretase 1 (Homo sapiens, UniProt P56817). The experiment in a line: Inhibition of human recombinant BACE1 by FRET based peptide cleavage assay.
Another assay addresses Cathepsin D (Homo sapiens, UniProt P07339). Nature of the assay: Inhibition of cathepsin D by FRET based peptide cleavage assay.
The test system of assay [1] is H4. The experiment in a line: Decrease in beta amyloid protein level in wild type H4 cells by RICA. It is filed as functional, cell-based. Conditions: Homo sapiens.
Assay [2] relates to H4. Nature of the assay: Decrease in beta CTF level in wild type H4 cells by RICA. Format: functional, cell-based. Conditions: Homo sapiens.

By IC50 is commonly meant the concentration that inhibits the measured activity by half.

Beta-secretase 1, sequence (P56817 whole entry): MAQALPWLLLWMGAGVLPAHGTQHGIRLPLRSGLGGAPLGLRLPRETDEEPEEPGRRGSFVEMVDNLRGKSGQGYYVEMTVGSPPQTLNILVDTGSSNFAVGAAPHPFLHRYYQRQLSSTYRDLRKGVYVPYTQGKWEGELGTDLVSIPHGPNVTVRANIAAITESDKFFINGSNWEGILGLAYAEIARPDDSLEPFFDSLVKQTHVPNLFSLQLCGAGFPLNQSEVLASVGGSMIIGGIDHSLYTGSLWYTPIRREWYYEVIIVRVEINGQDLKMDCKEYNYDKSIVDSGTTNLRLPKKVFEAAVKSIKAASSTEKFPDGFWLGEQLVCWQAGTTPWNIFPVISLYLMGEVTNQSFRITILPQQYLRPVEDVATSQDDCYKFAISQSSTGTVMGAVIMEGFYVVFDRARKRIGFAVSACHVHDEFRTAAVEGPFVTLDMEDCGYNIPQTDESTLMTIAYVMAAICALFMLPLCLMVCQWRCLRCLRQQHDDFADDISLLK
Cathepsin D, sequence (P07339 65-162 limits assumed): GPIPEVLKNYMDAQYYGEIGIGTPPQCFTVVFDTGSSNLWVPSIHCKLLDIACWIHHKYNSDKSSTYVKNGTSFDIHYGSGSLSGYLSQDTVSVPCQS
Cathepsin D, sequence (P07339 169-412 limits assumed): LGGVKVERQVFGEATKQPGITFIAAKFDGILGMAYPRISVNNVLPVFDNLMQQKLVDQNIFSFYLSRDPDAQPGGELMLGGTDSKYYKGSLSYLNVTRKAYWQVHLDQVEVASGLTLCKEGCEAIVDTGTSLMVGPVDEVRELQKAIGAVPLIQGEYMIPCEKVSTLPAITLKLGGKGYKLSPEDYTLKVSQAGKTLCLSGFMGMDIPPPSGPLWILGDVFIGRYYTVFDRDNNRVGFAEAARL
Pepsin A, sequence (P0DJD9 whole entry): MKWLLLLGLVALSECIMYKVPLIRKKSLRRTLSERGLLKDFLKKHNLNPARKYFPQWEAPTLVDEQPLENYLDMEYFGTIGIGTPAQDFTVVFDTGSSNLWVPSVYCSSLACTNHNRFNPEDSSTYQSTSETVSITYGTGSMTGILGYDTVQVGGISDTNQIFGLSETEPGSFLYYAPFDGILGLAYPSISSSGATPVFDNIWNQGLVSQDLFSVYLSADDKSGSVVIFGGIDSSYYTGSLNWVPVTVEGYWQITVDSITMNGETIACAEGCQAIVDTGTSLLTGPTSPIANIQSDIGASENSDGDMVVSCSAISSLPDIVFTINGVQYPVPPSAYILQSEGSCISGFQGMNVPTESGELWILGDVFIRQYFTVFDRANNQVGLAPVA

As for `CCCOc1ccc(-c2ccc(-c3ccccc3Cl)n2CC(=O)/N=C(/N)NCCCO)cc1`, the Selectivity ratio in the assay filed under Homo sapiens was above 50.

For `CC(=O)c1ccc(Oc2ccc(-c3ccc(-c4ccccc4Cl)n3CC(=O)NC(=N)N)cc2)cc1`, the 50% inhibitory concentration (IC50) against Pepsin A was above 50 µM. Further, the EC50 in the assay with CHO turned out to be 8.6 µM.

`CCCOc1ccc(-c2ccc(-c3ccccc3Cl)n2CC(=O)NC(=N)NCCCO)cc1`: the IC50 against Beta-secretase 2 is 0.34 µM; at Beta-secretase 1, 110 nM; on Cathepsin D, 5.9 µM; on Pepsin A, above 50 µM.

With `N/C(=N/C(=O)Cn1c(-c2ccccc2)ccc1C12CC3CC(CC(C3)C1)C2)NCCCO`, in the assay listed under Homo sapiens, the Selectivity ratio was above 50. Also, the half-maximal inhibitory concentration (IC50) against Beta-secretase 2 was 3.5 µM; on Beta-secretase 1, 240 nM; against Cathepsin D, 19.4 µM; against Pepsin A, above 50 µM. The EC50 in the assay with CHO amounted to 1.8 µM.

As for `NC(N)=NC(=O)Cn1c(-c2ccccc2)ccc1C12CC3CC(CC(C3)C1)C2`, the Selectivity ratio in the assay filed under Homo sapiens is above 50. The IC50 was 12.9 µM against Beta-secretase 2, 600 nM on Beta-secretase 1, 30.2 µM against Cathepsin D and above 50 µM against Pepsin A. The EC50 in the assay on CHO worked out at 3.1 µM.

With `N=C(N)NC(=O)Cn1c(-c2ccccc2)ccc1-c1ccccc1`, the Activity entry with H4 [1] and in the assay with H4 [2] was “Dose-dependent effect” in each case. On Pepsin A, this compound registered a half-inhibitory concentration (IC50) above 50 µM.
